The values that follow come from PMC3038857, “Using Nuclear Receptor Activity to Stratify Hepatocarcinogens” (PLoS ONE, 2011).

Data set [1] concerns the target T1, PPARG (peroxisome proliferator-activated receptor gamma) (Homo sapiens, UniProt P37231).
T1 construct: expressed in transfected cells; host or cells: HepG2
T1 sequence (P37231 1-505): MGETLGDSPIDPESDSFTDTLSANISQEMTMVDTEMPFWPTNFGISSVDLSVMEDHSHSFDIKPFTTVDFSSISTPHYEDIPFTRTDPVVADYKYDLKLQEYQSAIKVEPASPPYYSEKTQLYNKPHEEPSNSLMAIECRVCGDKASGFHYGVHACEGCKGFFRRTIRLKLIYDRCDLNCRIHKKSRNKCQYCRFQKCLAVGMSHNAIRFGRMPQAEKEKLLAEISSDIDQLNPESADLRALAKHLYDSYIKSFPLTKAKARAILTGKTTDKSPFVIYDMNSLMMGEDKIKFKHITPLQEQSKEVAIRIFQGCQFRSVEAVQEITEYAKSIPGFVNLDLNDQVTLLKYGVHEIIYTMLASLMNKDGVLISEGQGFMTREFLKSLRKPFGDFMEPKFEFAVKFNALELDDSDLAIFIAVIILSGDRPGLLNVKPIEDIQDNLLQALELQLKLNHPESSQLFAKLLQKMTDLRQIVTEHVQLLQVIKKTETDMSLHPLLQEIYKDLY
Briefly: ATG_PPARg_TRANS: Factorial reporter gene assay (HepG2). It counts as cell-based. As to conditions: HepG2; scale not given, looks like -log10 of molar active concentration; 0 = no activity. Put shortly: (§1)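 HepG2 cells were transfected with a multiple reporter transcription unit (MRTU) library of 48 transcription factor binding sites for the cis-acting PXRE assay. The ERRg, FXR and PPARg assays used a trans mammalian one-hybrid system with a further 25-unit nuclear receptor MRTU library. Chemicals were tested at seven concentrations, from the MTC downward in three-fold steps.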

Another data set has as its target Human ER (ESR1) (Homo sapiens, UniProt P03372). Nature of the data set: NVS_NR_hER: Human ER 3H-Estradiol (cell-free HTS). As to conditions: scale not given, looks like -log10 of molar active concentration, 0 = no activity. It counts as binding. An excerpt:
These are a collection of biochemical assays measuring binding constants and enzyme inhibition values. Chemicals were initially screened at a single concentration in duplicate wells at a concentration of 10 [drawing 63] M for cytochrome P-450 assays and 25 [drawing 64] M for all others. […] These assays were run by Caliper Life Sciences (Hanover, MD) under contract to EPA. Short assay descriptions are available at: http://www.caliperls.com/products/contract-research/in-vitro/.
Cell-free HTS Assays: A collection of biochemical assays measuring binding constants and enzyme inhibition values. […] These assays were run by Caliper Life Sciences (Hanover, MD) under contract to EPA. Short assay descriptions are available at http://www.caliperls.com/products/contract-research/in-vitro/. Values for all endpoints were imported into GeneData Screener (Basel, Switzerland) and normalised to solvent controls from the same plate as the tested compounds and expressed as percent of neutral control. Concentration-response curves were fit in GeneData Screener (Basel, Switzerland) Condeseo module using the Hill equation and AC50 values were determined. […] Detailed description of the methods, data and analysis methods for this dataset are described in a separate publication.

In data set [2] the target is T2, PPARg (PPARG) (Homo sapiens, UniProt P37231).
T2 sequence (P37231 1-505): T1 sequence (P37231 1-505)
Briefly: NVS_NR_hPPARg: Human PPARg Fluorescent Ligand (cell-free HTS). Format: binding. To be noted: scale not given, looks like -log10 of molar active concentration, 0 = no activity. Put shortly: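 Cell-free biochemical binding assays; chemicals first screened at a single concentration of 25 […] M in duplicate wells. Signals normalised to same-plate solvent controls as percent of neutral control, and AC50 values came from Hill-equation fits of concentration-response curves.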

Data set [3] has as its system Rat Liver. To be noted: rat chronic study, liver, any lesion; coded 6 / 0, code not explained here; ref ToxRefDB; cited from earlier work.
Data set [4] concerns Rat Liver. As to conditions: rat chronic study, liver, preneoplastic lesion; coded 6 / 0, code not explained here; ref ToxRefDB; cited from earlier work.
The test system of data set [5] is Rat Liver. As to conditions: rat chronic study, liver, neoplastic lesion; coded 6 / 0, code not explained here; ref ToxRefDB; cited from earlier work.
Data set [6] addresses T3, PXR (NR1I2) (Homo sapiens, UniProt O75469).
T3 sequence (O75469 1-434): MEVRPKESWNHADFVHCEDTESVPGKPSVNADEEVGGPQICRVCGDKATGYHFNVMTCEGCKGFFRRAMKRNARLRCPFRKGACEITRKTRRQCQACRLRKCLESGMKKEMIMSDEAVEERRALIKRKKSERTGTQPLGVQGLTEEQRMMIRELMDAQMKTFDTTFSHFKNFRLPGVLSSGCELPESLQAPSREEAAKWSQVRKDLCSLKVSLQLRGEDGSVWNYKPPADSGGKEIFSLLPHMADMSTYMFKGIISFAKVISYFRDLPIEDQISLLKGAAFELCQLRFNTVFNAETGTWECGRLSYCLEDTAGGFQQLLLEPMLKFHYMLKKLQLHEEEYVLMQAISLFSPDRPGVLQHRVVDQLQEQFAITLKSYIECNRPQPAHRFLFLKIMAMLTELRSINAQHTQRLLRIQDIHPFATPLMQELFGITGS
Nature of the data set: ATG_PXR_TRANS: Factorial reporter gene assay (HepG2). It counts as cell-based. The arrangement: endogenous in cells; host or cells: HepG2. As to conditions: HepG2; scale not given, looks like -log10 of molar active concentration; 0 = no activity. In outline: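 Seven concentrations per chemical, three-fold dilutions down from the MTC, were tested in HepG2 hepatoma cells. Those cells carried a multiple reporter transcription unit library, read either as cis transcription-factor-site reporters or as a trans mammalian one-hybrid panel for nuclear receptors.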
A general note: A reporter such as luciferase makes a cellular process visible.

Data set [7] has as its target T3, PXR (NR1I2). Briefly: ATG_PXRE_CIS: Factorial reporter gene assay (HepG2). It counts as cell-based. To be noted: HepG2; scale not given, looks like -log10 of molar active concentration; 0 = no activity. Details: endogenous in cells; host or cells: HepG2. In outline:
as §1

Data set [8] concerns the target T2, PPARg (PPARG). Nature of the data set: NCGC_PPARg_Agonist: GAL4 BLAM Reporter gene assay: PPARg. To be noted: agonist mode; scale not given, looks like -log10 of molar active concentration; 0 = no activity. Details: expressed in transfected cells; host or cells: HEK293. It counts as cell-based. In outline:
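Tox21 cell-based screens at NCGC using GAL4-fused receptor beta-lactamase reporters. Responses active only at the top concentration (above 50%) were discarded, and fits needed R^2 of at least 0.5.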

Sequence of Human ER (ESR1) (P03372 whole entry): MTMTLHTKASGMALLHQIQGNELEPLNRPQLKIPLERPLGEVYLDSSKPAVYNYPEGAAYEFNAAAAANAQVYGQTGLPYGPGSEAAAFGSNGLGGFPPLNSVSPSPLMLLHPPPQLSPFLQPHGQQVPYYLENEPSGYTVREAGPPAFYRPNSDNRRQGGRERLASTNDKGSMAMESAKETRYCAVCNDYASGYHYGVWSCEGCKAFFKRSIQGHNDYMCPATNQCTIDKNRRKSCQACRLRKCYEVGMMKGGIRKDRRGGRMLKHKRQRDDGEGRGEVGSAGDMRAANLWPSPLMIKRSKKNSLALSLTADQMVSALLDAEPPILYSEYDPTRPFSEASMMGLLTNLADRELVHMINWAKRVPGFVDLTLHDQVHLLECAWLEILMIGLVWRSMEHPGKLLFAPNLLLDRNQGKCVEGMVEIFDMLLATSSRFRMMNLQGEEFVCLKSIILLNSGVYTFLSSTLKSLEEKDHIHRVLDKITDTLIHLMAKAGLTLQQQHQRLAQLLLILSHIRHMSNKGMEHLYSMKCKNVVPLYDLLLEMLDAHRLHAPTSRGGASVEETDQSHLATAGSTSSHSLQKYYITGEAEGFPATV

In data set [1], `Nc1cnn(-c2ccccc2)c(=O)c1Cl` [r56] showed an ATG_PPARg_TRANS of 4.409. Further, the NVS_NR_hER on Human ER (ESR1) is 0. This molecule had an NVS_NR_hPPARg on PPARg (PPARG) [2] of 0. In addition, the CHR_Rat_Liver_1_AnyLesion in the data set on Rat Liver [3] was 0. The CHR_Rat_Liver_2_PreneoplasticLesion in the data set on Rat Liver [4] is 0. Further, the CHR_Rat_Liver_3_NeoplasticLesion with Rat Liver [5] is given as 0. Moreover, at PXR (NR1I2) [6], the ATG_PXR_TRANS turned out to be 0. This molecule also returned an ATG_PXRE_CIS on PXR (NR1I2) [7] of 0. The molecule also gave an NCGC_PPARg_Agonist on PPARg (PPARG) [8] of 0.

In the case of `CC(C)OC(=O)Nc1cccc(Cl)c1` [r59], the ATG_PPARg_TRANS in [1] was 4.301. The NVS_NR_hER on Human ER (ESR1) came out at 0. On PPARg (PPARG) [2], this molecule had an NVS_NR_hPPARg of 0. Also, in the data set with Rat Liver [3], the CHR_Rat_Liver_1_AnyLesion is listed as 6. Also, the CHR_Rat_Liver_2_PreneoplasticLesion in the data set with Rat Liver [4] is reported as 6. Moreover, the CHR_Rat_Liver_3_NeoplasticLesion in the data set with Rat Liver [5] was 0. Moreover, the ATG_PXR_TRANS at PXR (NR1I2) [6] was found to be 4.347. Besides, the ATG_PXRE_CIS at PXR (NR1I2) [7] was 4.658. On PPARg (PPARG) [8], this molecule showed an NCGC_PPARg_Agonist of 0.

Regarding `COc1nc(C)nc(NC(=O)NS(=O)(=O)c2ccccc2Cl)n1` [r62], the ATG_PPARg_TRANS in data set [1] was 0. For the same molecule, at Human ER (ESR1), the NVS_NR_hER came out at 0. In addition, on PPARg (PPARG) [2], the NVS_NR_hPPARg is 0. Further, in the data set on Rat Liver [3], the CHR_Rat_Liver_1_AnyLesion was 6. For the same molecule, in the data set with Rat Liver [4], the CHR_Rat_Liver_2_PreneoplasticLesion is reported as 0. Also, the CHR_Rat_Liver_3_NeoplasticLesion in the data set with Rat Liver [5] is reported as 0. The ATG_PXR_TRANS on PXR (NR1I2) [6] amounted to 0. Further, the ATG_PXRE_CIS at PXR (NR1I2) [7] was found to be 4.495. In addition, the NCGC_PPARg_Agonist at PPARg (PPARG) [8] worked out at 0.

In turn, `COc1nc(C)nc(NC(=O)NS(=O)(=O)c2ccccc2Cl)n1` [r63] displayed an ATG_PPARg_TRANS in data set [1] of 0. The NVS_NR_hER at Human ER (ESR1) came to 0. For the same molecule, the NVS_NR_hPPARg at PPARg (PPARG) [2] was determined as 0. Besides, in the data set with Rat Liver [3], the CHR_Rat_Liver_1_AnyLesion is 6. For the same molecule, in the data set on Rat Liver [4], the CHR_Rat_Liver_2_PreneoplasticLesion was 0. Besides, the CHR_Rat_Liver_3_NeoplasticLesion in the data set on Rat Liver [5] is 0. The same molecule showed an ATG_PXR_TRANS at PXR (NR1I2) [6] of 0. The molecule further showed an ATG_PXRE_CIS at PXR (NR1I2) [7] of 0. Moreover, at PPARg (PPARG) [8], the NCGC_PPARg_Agonist amounted to 0.
